Measurements published in patent publication US20230085307A1, “PYRIDAZINONE COMPOUND AND HERBICIDE” (NISSAN CHEMICAL CORPORATION, priority 2019, published 2023).

How the values were obtained:
[1] = tested on: late watergrass; test: Test Example 1: herbicidal activity, application before weed generation under submerged conditions (Table 16, symbol A); type: in vivo, late watergrass (Echinochloa oryzicola); conditions: amount of applied herbicide 320 g/ha
How it was run: (§1)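 Alluvial soil was flooded to 4 cm depth, weed seeds were sown mixed and 2.5-leaf rice seedlings were transplanted. On sowing day, the compound's emulsion, diluted in water to a set dose, was applied to the water surface. Plants grew at 25–30 °C and were scored 0–5 after three weeks.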

[2] = tested on: Japanese bulrush; test: Test Example 1: herbicidal activity, application before weed generation under submerged conditions (Table 16, symbol B); type: in vivo, Japanese bulrush (Schoenoplectus juncoides); conditions: amount of applied herbicide 320 g/ha
How it was run: as §1

[3] = tested on: oval-leafed pondweed; test: Test Example 1: herbicidal activity, application before weed generation under submerged conditions (Table 16, symbol C); type: in vivo, oval-leafed pondweed (Monochoria vaginalis); conditions: amount of applied herbicide 320 g/ha
How it was run: as §1

[4] = tested on: barnyard grass; test: Test Example 3: herbicidal effect by foliage application, Wagner pot (Table 18, symbol H); type: in vivo, barnyard grass (Echinochloa crus-galli); conditions: 320 g/ha
How it was run: (§2)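 Plants were sown in alluvial soil held under 0.1–0.5 cm standing water and grown 14 days in a greenhouse at 25–30 °C. An emulsifiable formulation, water-diluted to the set dose, was then sprayed onto the foliage, and effects were scored three weeks later using previously defined criteria.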

[5] = tested on: Chinese sprangletop; test: Test Example 3: herbicidal effect by foliage application, Wagner pot (Table 18, symbol D); type: in vivo, chinese sprangletop (Leptochloa chinensis); conditions: 320 g/ha
How it was run: as §2

[6] = tested on: rice flat sedge; test: Test Example 3: herbicidal effect by foliage application, Wagner pot (Table 18, symbol E); type: in vivo, rice flat sedge (Cyperus iria); conditions: 320 g/ha
How it was run: as §2

[7] = tested on: southern crabgrass; test: Test Example 4: herbicidal effect by soil treatment (Table 19, symbol F); type: in vivo, southern crabgrass (Digitaria ciliaris); conditions: amount of applied herbicide 320 g/ha
How it was run: (§3)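 Step 1: sow seeds in sterilized diluvial soil, cover ~1.5 cm. Step 2: spray diluted emulsion onto soil surface at predetermined rate. Step 3: greenhouse, 25–30° C, three weeks. Step 4: grade effect on each plant by earlier criteria.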

[8] = tested on: green foxtail; test: Test Example 4: herbicidal effect by soil treatment (Table 19, symbol G); type: in vivo, green foxtail (Setaria viridis); conditions: amount of applied herbicide 320 g/ha
How it was run: as §3

[9] = tested on: barnyard grass; test: Test Example 4: herbicidal effect by soil treatment (Table 19, symbol H); type: in vivo, barnyard grass (Echinochloa crus-galli); conditions: amount of applied herbicide 320 g/ha
How it was run: as §3

[10] = tested on: wild oat; test: Test Example 4: herbicidal effect by soil treatment (Table 19, symbol I); type: in vivo, wild oat (Avena fatua); conditions: amount of applied herbicide 320 g/ha
How it was run: as §3

[11] = tested on: blackgrass; test: Test Example 4: herbicidal effect by soil treatment (Table 19, symbol J); type: in vivo, blackgrass (Alopecurus myosuroides); conditions: amount of applied herbicide 320 g/ha
How it was run: as §3

[12] = tested on: Italian ryegrass; test: Test Example 4: herbicidal effect by soil treatment (Table 19, symbol K); type: in vivo, Italian ryegrass (Lolium multiflorum); conditions: amount of applied herbicide 320 g/ha
How it was run: as §3

[13] = tested on: windgrass; test: Test Example 4: herbicidal effect by soil treatment (Table 19, symbol L); type: in vivo, windgrass (Apera spica-venti); conditions: amount of applied herbicide 320 g/ha
How it was run: as §3

[14] = tested on: velvetleaf; test: Test Example 4: herbicidal effect by soil treatment (Table 19, symbol M); type: in vivo, velvetleaf (Abutilon theophrasti); conditions: amount of applied herbicide 320 g/ha
How it was run: as §3

[15] = tested on: redroot pigweed; test: Test Example 4: herbicidal effect by soil treatment (Table 19, symbol N); type: in vivo, redroot pigweed (Amaranthus retroflexus); conditions: amount of applied herbicide 320 g/ha
How it was run: as §3

[16] = tested on: lambsquarters; test: Test Example 4: herbicidal effect by soil treatment (Table 19, symbol O); type: in vivo, lambsquarters (Chenopodium album); conditions: amount of applied herbicide 320 g/ha
How it was run: as §3

[17] = tested on: chickweed; test: Test Example 4: herbicidal effect by soil treatment (Table 19, symbol P); type: in vivo, common chickweed (Stellaria media); conditions: amount of applied herbicide 320 g/ha
How it was run: as §3

[18] = tested on: false cleavers; test: Test Example 4: herbicidal effect by soil treatment (Table 19, symbol Q); type: in vivo, false cleavers (Galium spurium); conditions: amount of applied herbicide 320 g/ha
How it was run: as §3

[19] = tested on: persian speedwell; test: Test Example 4: herbicidal effect by soil treatment (Table 19, symbol R); type: in vivo, Persian speedwell (Veronica persica); conditions: amount of applied herbicide 320 g/ha
How it was run: as §3

[20] = tested on: southern crabgrass; test: Test Example 5: herbicidal effect by foliage application, plastic box (Table 20, symbol F); type: in vivo, southern crabgrass (Digitaria ciliaris)
How it was run: (§4)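 Foliar spray test: emulsion formulation diluted in water to a set application rate, sprayed onto 14-day-old plants raised in diluvial soil at 25° C to 30° C under glass. Both herbicidal effect and crop effect rated visually three weeks later.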

[21] = tested on: green foxtail; test: Test Example 5: herbicidal effect by foliage application, plastic box (Table 20, symbol G); type: in vivo, green foxtail (Setaria viridis)
How it was run: as §4

[22] = tested on: barnyard grass; test: Test Example 5: herbicidal effect by foliage application, plastic box (Table 20, symbol H); type: in vivo, barnyard grass (Echinochloa crus-galli)
How it was run: as §4

[23] = tested on: wild oat; test: Test Example 5: herbicidal effect by foliage application, plastic box (Table 20, symbol I); type: in vivo, wild oat (Avena fatua)
How it was run: as §4

[24] = tested on: blackgrass; test: Test Example 5: herbicidal effect by foliage application, plastic box (Table 20, symbol J); type: in vivo, blackgrass (Alopecurus myosuroides)
How it was run: as §4

[25] = tested on: Italian ryegrass; test: Test Example 5: herbicidal effect by foliage application, plastic box (Table 20, symbol K); type: in vivo, Italian ryegrass (Lolium multiflorum)
How it was run: as §4

[26] = tested on: windgrass; test: Test Example 5: herbicidal effect by foliage application, plastic box (Table 20, symbol L); type: in vivo, windgrass (Apera spica-venti)
How it was run: as §4

[27] = tested on: velvetleaf; test: Test Example 5: herbicidal effect by foliage application, plastic box (Table 20, symbol M); type: in vivo, velvetleaf (Abutilon theophrasti)
How it was run: as §4

[28] = tested on: redroot pigweed; test: Test Example 5: herbicidal effect by foliage application, plastic box (Table 20, symbol N); type: in vivo, redroot pigweed (Amaranthus retroflexus)
How it was run: as §4

[29] = tested on: lambsquarters; test: Test Example 5: herbicidal effect by foliage application, plastic box (Table 20, symbol O); type: in vivo, lambsquarters (Chenopodium album)
How it was run: as §4

[30] = tested on: chickweed; test: Test Example 5: herbicidal effect by foliage application, plastic box (Table 20, symbol P); type: in vivo, common chickweed (Stellaria media)
How it was run: as §4

[31] = tested on: false cleavers; test: Test Example 5: herbicidal effect by foliage application, plastic box (Table 20, symbol Q); type: in vivo, false cleavers (Galium spurium)
How it was run: as §4

[32] = tested on: persian speedwell; test: Test Example 5: herbicidal effect by foliage application, plastic box (Table 20, symbol R); type: in vivo, Persian speedwell (Veronica persica)
How it was run: as §4

[33] = foliage application, 320 g/ha, three weeks after application
[34] = amount of applied herbicide 320 g/ha, foliage application after 14-day growth, evaluated three weeks after application

SMILES	Herbicidal effect, A: late watergrass [1]	Herbicidal effect, B: Japanese bulrush [2]	Herbicidal effect, C: oval-leafed pondweed [3]	herbicidal effect on barnyard grass (H) [4]	herbicidal effect on Chinese sprangletop (D) [5]	herbicidal effect on rice flat sedge (E) [6]	F: southern crabgrass, herbicidal effect grade [7]	G: green foxtail, herbicidal effect grade [8]	H: barnyard grass, herbicidal effect grade [9]	I: wild oat, herbicidal effect grade [10]	J: blackgrass, herbicidal effect grade [11]	K: Italian ryegrass, herbicidal effect grade [12]	L: windgrass, herbicidal effect grade [13]	M: velvetleaf, herbicidal effect grade [14]	N: redroot pigweed, herbicidal effect grade [15]	O: lambsquarters, herbicidal effect grade [16]	P: chickweed, herbicidal effect grade [17]	Q: false cleavers, herbicidal effect grade [18]	R: persian speedwell, herbicidal effect grade [19]	also measured
CCCC(=O)Oc1c(C)nn(C)c(=O)c1-c1c(-c2ccc(SC)cc2)sc2cc(OC)ccc12 [3-075]	1 (Herbicidal rate of 5% or more and less than 20%)	1 (Herbicidal rate of 5% or more and less than 20%)	2 (Herbicidal rate of 20% or more and less than 40%)	0 (Herbicidal rate of 5% or less (almost no effect))	3 (Herbicidal rate of 40% or more and less than 70%)	3 (Herbicidal rate of 40% or more and less than 70%)	0 (Herbicidal rate of 5% or less (almost no effect))	0 (Herbicidal rate of 5% or less (almost no effect))	0 (Herbicidal rate of 5% or less (almost no effect))	0 (Herbicidal rate of 5% or less (almost no effect))	0 (Herbicidal rate of 5% or less (almost no effect))	0 (Herbicidal rate of 5% or less (almost no effect))	0 (Herbicidal rate of 5% or less (almost no effect))	0 (Herbicidal rate of 5% or less (almost no effect))	3 (Herbicidal rate of 40% or more and less than 70%)	3 (Herbicidal rate of 40% or more and less than 70%)	2 (Herbicidal rate of 20% or more and less than 40%)	0 (Herbicidal rate of 5% or less (almost no effect))	4 (Herbicidal rate of 70% or more and less than 90%)	F: southern crabgrass, herbicidal effect grade [20, 33]: 3 (Herbicidal rate of 40% or more and less than 70%); G: green foxtail, herbicidal effect grade [21, 33]: 3 (Herbicidal rate of 40% or more and less than 70%); H: barnyard grass, herbicidal effect grade [22, 33]: 3 (Herbicidal rate of 40% or more and less than 70%); I: wild oat, herbicidal effect grade [23, 33]: 0 (Herbicidal rate of 5% or less (almost no effect)); J: blackgrass, herbicidal effect grade [24, 33]: 0 (Herbicidal rate of 5% or less (almost no effect)); K: Italian ryegrass, herbicidal effect grade [25, 33]: 0 (Herbicidal rate of 5% or less (almost no effect)); L: windgrass, herbicidal effect grade [26, 33]: 0 (Herbicidal rate of 5% or less (almost no effect)); M: velvetleaf, herbicidal effect grade [27, 33]: 0 (Herbicidal rate of 5% or less (almost no effect)); N: redroot pigweed, herbicidal effect grade [28, 33]: 4 (Herbicidal rate of 70% or more and less than 90%); O: lambsquarters, herbicidal effect grade [29, 33]: 4 (Herbicidal rate of 70% or more and less than 90%); P: chickweed, herbicidal effect grade [30, 33]: 5 (Herbicidal rate of 90% or more (almost completely withered)); Q: false cleavers, herbicidal effect grade [31, 33]: 5 (Herbicidal rate of 90% or more (almost completely withered)); R: persian speedwell, herbicidal effect grade [32, 33]: 5 (Herbicidal rate of 90% or more (almost completely withered))
CCCC(=O)Oc1c(C)nn(C)c(=O)c1-c1c(-c2ccccc2OCC)sc2cc(F)c(F)cc12 [5-017]	3 (Herbicidal rate of 40% or more and less than 70%)	2 (Herbicidal rate of 20% or more and less than 40%)	2 (Herbicidal rate of 20% or more and less than 40%)	5 (Herbicidal rate of 90% or more (almost completely withered))	0 (Herbicidal rate of 5% or less (almost no effect))	5 (Herbicidal rate of 90% or more (almost completely withered))	4 (Herbicidal rate of 70% or more and less than 90%)	4 (Herbicidal rate of 70% or more and less than 90%)	4 (Herbicidal rate of 70% or more and less than 90%)	3 (Herbicidal rate of 40% or more and less than 70%)	0 (Herbicidal rate of 5% or less (almost no effect))	0 (Herbicidal rate of 5% or less (almost no effect))	2 (Herbicidal rate of 20% or more and less than 40%)	3 (Herbicidal rate of 40% or more and less than 70%)	5 (Herbicidal rate of 90% or more (almost completely withered))	4 (Herbicidal rate of 70% or more and less than 90%)	4 (Herbicidal rate of 70% or more and less than 90%)	4 (Herbicidal rate of 70% or more and less than 90%)	5 (Herbicidal rate of 90% or more (almost completely withered))	Herbicidal effect by foliage application, F: southern crabgrass [20, 34]: 1 (Herbicidal rate of 5% or more and less than 20%); Herbicidal effect by foliage application, G: green foxtail [21, 34]: 0 (Herbicidal rate of 5% or less (almost no effect)); Herbicidal effect by foliage application, H: barnyard grass [22, 34]: 3 (Herbicidal rate of 40% or more and less than 70%); Herbicidal effect by foliage application, I: wild oat [23, 34]: 3 (Herbicidal rate of 40% or more and less than 70%); Herbicidal effect by foliage application, J: blackgrass [24, 34]: 4 (Herbicidal rate of 70% or more and less than 90%); Herbicidal effect by foliage application, K: Italian ryegrass [25, 34]: 0 (Herbicidal rate of 5% or less (almost no effect)); Herbicidal effect by foliage application, L: windgrass [26, 34]: 3 (Herbicidal rate of 40% or more and less than 70%); Herbicidal effect by foliage application, M: velvetleaf [27, 34]: 4 (Herbicidal rate of 70% or more and less than 90%); Herbicidal effect by foliage application, N: redroot pigweed [28, 34]: 2 (Herbicidal rate of 20% or more and less than 40%); Herbicidal effect by foliage application, O: lambsquarters [29, 34]: 1 (Herbicidal rate of 5% or more and less than 20%); Herbicidal effect by foliage application, P: chickweed [30, 34]: 5 (Herbicidal rate of 90% or more (almost completely withered)); Herbicidal effect by foliage application, Q: false cleavers [31, 34]: 5 (Herbicidal rate of 90% or more (almost completely withered)); Herbicidal effect by foliage application, R: persian speedwell [32, 34]: 5 (Herbicidal rate of 90% or more (almost completely withered))
